Legend:
trypsin = assay: Trypsin activity in Gnptab−/− acinar cells; assay type: cell-based, mouse; conditions: 3 hours; 50 μM CA-074Me or 20 nM BafA1
Description: FIGS. 6A-6R show mechanisms mediating increased trypsin activity in Gnptab−/− pancreas. Trypsin activity and its regulation were analyzed in pancreatic (A, C, and D) tissue, (B and P-R) acinar cells, (E-H and O) lobules, and (I-N) subcellular fractions. In B, acinar cells were incubated for 3 hours without and with 20 nM BafAl or 50 μM CatB inhibitor CA-074Me; in P-R, with the cholesterol chelator methyl-β-cyclodextrin (MCD) at the indicated concentrations. In E-H, pancreatic lobules were double stained for TAP and LC3 or LAMP2; in O, for TAP and filipin. Quantitative colocalization analysis was done as detailed in FIG. 2. Each symbol in A, B, J-N, Q, and R represents an individual mouse or cell preparation (n=3-8 per condition). Each symbol in D, G, and H corresponds to 20 to 30 cells in a different field (n=9-20 fields from 3 WT and 3 KO mice or lobule preparations). Values are mean±SEM. **P<0.01, ***P<0.001 vs. WT tissue/lobules (A, G, and H) or corresponding WT subcellular fraction (K and M). ##P<0.01 vs. no inhibitors (B) or MCD (Q and R). ††P<0.01, †††P<0.001 vs. the other two fractions (L and N). Significance was determined by 2-tailed Student's t test (A, G, and H) or 1-way ANOVA followed by Tukey's multiple comparison test (B, K-N, Q, and R). Scale bars: 10 μm.
Activities of cathepsin (Cat) B and L, caspase-3, trypsin, and lysosomal acid lipase (LAL) were measured in pancreatic tissue or cell homogenates and subcellular fractions with fluorogenic assays using substrates specific for CatB (Z-Arg-Arg-AMC), CatL (Z-Phe-Arg-AMC), caspase-3-like ([…]), trypsin (Boc-Gln-Ala-Arg-AMC), as previously described (1-4, 6, 7); and for LAL (4-methylumbelliferyl oleate), as in (17). In measurements of CatL activity, the assay buffer also contained 50 μM CA-074me, a CatB inhibitor. LAL activity was measured in the absence and presence of the LAL inhibitor lalistat (100 μM) as the difference between these values (17).

[1] = test system: cerulein pancreatitis (CER-AP); assay: Drug treatment of cerulein pancreatitis (CER-AP) in WT mice; assay type: in vivo, mouse
Description: FIGS. 10A-10N show deranged cholesterol metabolism causes acinar cell damage, while its normalization ameliorates experimental pancreatitis. (A-D) Cholesterol content and trypsin activity were measured (per mg protein) in WT mouse acinar cells incubated for 1 hour without and with methyl-β-cyclodextrin (MCD; 10 mM) or cholesterol-loaded MCD (MCD-Chol; 200 μg/mL), in the presence or absence of 100 nM CCK. Values are expressed relative to those in cells without MCD/MCD-Chol. (E-J) WT mice received daily i.p. injections of the LXR agonist T0901317 (T09), simvastatin (Sim; 20 mg/kg each), or vehicle. On day 4, mice were subjected to CER-AP and pancreata collected for analyses (see also FIG. 20). Cholesterol content (E), trypsin activity (F), and pancreas histopathology (H&E staining; G) were measured. (H, I, L, and N) IB analysis of markers/mediators of autophagy (LC3, p62), ER stress (CHOP, GRP-78), and mitophagy (Parkin). Ub, ubiquitylated proteins. (J) Mitochondrial fragmentation was assessed by immunostaining for Tom20, as detailed in FIG. 7G. (K and L) Mouse acinar cells were treated for 16 hours with LDL (30 μg/mL) or the combination of LDL and 10 μM U18666A. (M and N) Mice received injections of U18666A as detailed in FIG. 9B. Pancreas histopathology (H&E staining; M) and levels of autophagy markers/mediators (N) were measured. Each symbol in A-F and I represents an individual mouse or cell preparation. Values are mean±SEM from 3 to 7 mice or cell preparations per condition. ^§ P<0.05, ^§§ P<0.01 vs. control cells (without MCD/MCD-Chol). ***P<0.001 vs. saline-treated mice. ^#P<0.05, ^##P<0.01, ^###P<0.001 vs. CER-AP alone (no inhibitors). Significance was determined by 2-tailed Student's t test (A-D) or 1-way ANOVA followed by Tukey's multiple comparison test (E, F, and I). Scale bars: 10 μm.
FIGS. 20A-20C show simvastatin improves cerulein pancreatitis. Mice received daily i.p. injections of simvastatin (Sim; 20 mg/kg) or vehicle (see FIG. 10), and on day 4 were subjected to cerulein pancreatitis (CER-AP). (A) Pancreas histopathology (H&E staining; scale: 10 μm). (B) IB analysis of markers/mediators of autophagy (LC3, p62), ER stress (CHOP), and the MLN64/STARD3 protein mediating cholesterol transfer from LE/Ly to mitochondria. Each IB lane represents an individual mouse; ERK1/2 is the loading control. […] Ub, ubiquitylated proteins. (C) Pancreatitis responses. Values are mean±SEM from 7-13 mice for each condition. ***p<0.001 vs saline control. ^###p<0.001 vs CER-AP alone (no simvastatin). Significance was determined by 1-way ANOVA followed by Tukey's multiple comparisons test.
FIGS. 25A-25C show reducing cholesterol overload greatly ameliorates experimental pancreatitis. CER-AP responses were measured in (A) AclyAac or (C) WT mice treated with simvastatin or bempedoic acid (BemA). (B) Acinar cells were transfected with ACLA (or mock) siRNA and subjected to ex-vivo CCK-AP. Each symbol represents an individual mouse or cell preparation. Values are mean±SE. **p<0.01, ***p<0.001 vs saline treated control mice (or mock transfection); #p<0.05, ##p<0.01, ###p<0.001 vs CER/CCK-AP in control mice (i.e. without inhibitors) or cells.
Cerulein-induced (CER-AP) and L-arginine induced (Arg-AP) acute pancreatitis models were performed in 12-week-old C57BL/6 mice that received 7 hourly i.p. injections of 50 μg/kg cerulein or 3 hourly i.p. injections of 3.3 g/kg Arg; controls received physiologic saline injections. Mice were euthanized for analyses 7 hours after the first cerulein or 24 hours after the first Arg injection. Choline deficient, ethionine-supplemented (CDE) pancreatitis was induced in young (~5-weeks old) female mice fed either CDE or control diet. Mice were euthanized 72 hours after the diet initiation. These models have been described in detail (1-7).
12-week-old WT mice were subjected for 4 consecutive days to daily i.p. injections of 20 mg/kg simvastatin (8,9) or 20 mg/kg T0901317 (10); or 10 mg/kg U18666A for 15 days (11). […]

pancreas = assay: Drug treatment of Gnptab−/− mice: pancreatic total cholesterol; assay type: in vivo, mouse
Description: 12-week-old Gnptab−/− mice were subjected to daily i.p. injections of 20 mg/kg simvastatin or the same dose of T0901317 for 4 or 21 days.
Total cholesterol content was measured with Cholesterol Assay kit per manufacturer's instructions. Samples of mouse pancreas and liver, cell pellet homogenates, subcellular fractions, isolated mitochondria, and serum were diluted in the reaction buffer containing cholesterol probe and incubated at 37° C. for 1 h in the dark. To measure total cholesterol, the samples were subjected to digestion with cholesterol esterase. To measure non-esterified cholesterol, the esterase was omitted from the assay.

acinar cells = assay: Oxygen consumption rate (OCR) of acinar cells, Seahorse; assay type: cell-based, mouse; conditions: etomoxir 40 μM
Description: FIGS. 7A-7Q show Gnptab ablation causes mitochondrial dysfunction in the pancreas. Mitochondrial functional parameters were measured in mitochondria isolated from pancreas (A, D, J, and M) or liver (N-P), in acinar cells (B, C, and I), and pancreatic (E-H, K, and L) and liver (Q) tissues of WT and KO mice. (A and N) Activities of mitochondrial ETC complexes I, II, IV, and V. (B, C, and I) Acinar cell oxygen consumption rates (OCR), reflecting mitochondrial OXPHOS, were measured in basal conditions and after treatment with the B-oxidation inhibitor etomoxir (40 μM), and normalized to total protein in the sample. (B) Representative OCR tracings in acinar cell suspension subjected to consecutive injections of the ATP synthase inhibitor oligomycin (Oligo; 3 μM), protonophore FCCP (2.7 μM), and […] rotenone plus antimycin A (R+A, 5 μM each; to correct for nonmitochondrial respiration). (C and I) ATP-linked respiration was calculated as the difference between basal OCR and that in Oligo-treated cells; the maximal OCR was obtained in FCCP-treated cells. (D and O) Mitochondrial membrane potential (ΔΨm) was measured with a tetraphenyl phosphonium ion (TPP+) electrode. FCCP (5 μM) was added to completely dissipate ΔΨm. (E) ATP was measured in pancreatic tissue homogenate with luciferin-luciferase assay. […] (G) Mitochondrial fragmentation was assessed by changes in Tom20 or VDAC immunostaining pattern, from an interconnected tubular mitochondrial network in WT to a predominantly disjoined/circular one in KO pancreas. […] (K) Long-chain acylcarnitines were measured with LC-MS/GC-MS. […] Significance was determined by 2-tailed Student's t test.
Oxygen consumption rates (OCR) were measured in live acinar cells using Seahorse XFe96, as in (15). […] In all within-set experiments the same volume of cell suspension were used with the same amount of protein; and partial oxygen pressure was monitored to ensure its stability in the cell suspension.

[2] = CER-AP, T0901317 or simvastatin 20 mg/kg i.p. daily

With CCCNC(=O)[C@H]1O[C@@H]1C(=O)N[C@H](C(=O)N1CCC[C@H]1C(=O)OC)[C@@H](C)CC [CA-074Me] the “Reduction of trypsin activity, Gnptab−/− acinar cells” value (trypsin) was “by half”.

For O=S(=O)(c1ccccc1)N(CC(F)(F)F)c1ccc(C(O)(C(F)(F)F)C(F)(F)F)cc1 [T0901317], the “CER-induced increase in MLN64” value ([1]; CER-AP, 20 mg/kg i.p. daily) was “abrogated”, the “accumulation of LC3-II” value ([1]; CER-AP, 20 mg/kg i.p. daily) was “reduced” and the “accumulation of p62” value ([1]; CER-AP, 20 mg/kg i.p. daily) was “reduced”. The “accumulation of ubiquitylated proteins” value ([1]; CER-AP, 20 mg/kg i.p. daily) was “reduced”, the “mitochondrial fragmentation (Tom20 IF)” value ([1]; CER-AP, 20 mg/kg i.p. daily) was “normalized” and the CHOP levels ([1]; CER-AP, 20 mg/kg i.p. daily, ER stress) was “decreased”. The “pancreatitis-induced increase in total cholesterol” value [1, 2] was “eliminated”, the “pancreatitis-induced increase in trypsin activity” value [1, 2] was “eliminated” and the “pancreas histopathology in CER-AP” value ([1]; H&E, 20 mg/kg i.p. daily) was “improved”. The “pathologic responses of experimental pancreatitis (impaired autophagy, ER stress and others)” value ([1]; discussion statement) was “reduced”, the “experimental pancreatitis in WT mouse and ex vivo models” value ([1]; overall result) was “ameliorated” and the “total cholesterol content in pancreas, Gnptab−/− mice” value (pancreas; 20 mg/kg i.p. daily for 4 or 21 days) was “Neither treatment changed”. For the same compound, the “pancreatic total cholesterol, Gnptab−/− mice” value (pancreas; even for 3 weeks) was “failed to decrease”.

CCOC(=O)[C@@]1(CCCCCCOc2ccc(Cl)cc2)CO1 [etomoxir] was tested, and the “respiration rates, KO” value (acinar cells; Gnptab−/− (KO) acinar cells) was “not significantly reduced”, the “ATP-linked OCR, WT” value (acinar cells; WT acinar cells) was “inhibition” and the “basal OCR, WT” value (acinar cells; WT acinar cells) was “inhibition”.
